Experimental data: patent US20110301170A1, “Inhibitors of JNK” (priority 2010, published 2011)
Counter-ions that a name gives are not always drawn.

Tested on: T1, JNK
T1 construct: Human JNK2α2 assay contains 1 nM enzyme; Human JNK1α1 assay contains 2 nM enzyme
Assay: JNK Assay in vitro (phosphorylation of GST-ATF2 with [γ-33P] ATP)
Format: biochemical, Human
Conditions: IC50 affinity values; JNK isoform (JNK1α1, JNK2α2 or JNK3) not stated; Km concentrations of ATP and substrate; 30° C. for 30 min
Method: JNK activity was measured by phosphorylation of GST-ATF2 (19-96) with [-^33P] ATP. […] Human JNK2α2 assay contains 1 nM enzyme, 1 μM ATF2, 8 μM ATP with 1 uCi [γ-^33P] ATP. Human JNK1α1 assay contains 2 nM enzyme, 1 μM ATF2, 6 μM ATP with 1 μCi [γ-^33P] ATP. Human JNK3 (Upstate Biotech #14-501M) assay contains 2 nM enzyme, 1 μM ATF2, 4 μM ATP with 1 μCi [γ-^33P] ATP. The enzyme assay was carried out in the presence or absence of several compound concentrations. JNK and compound were pre-incubated for 10 min., followed by initiation of the enzymatic reaction by adding ATP and the substrate. The reaction mixture was incubated at 30° C. for 30 min. At the end of incubation, the reaction was terminated by transferring 25 μl of the reaction mixture to 150 μl of 10% glutathione Sepharose® slurry (Amersham #27-4574-01) containing 135 mM EDTA. The reaction product was captured on the affinity resin, and washed on a filtration plate (Millipore, MABVNOB50) with phosphate buffered saline for six times to remove free radionucleotide. The incorporation of ^33P into ATF2 was quantified on a microplate scintillation counter (Packard Topcount). Compound inhibition potency on JNK was measured by IC50 value generated from ten concentration inhibition curves fitted into the 3-parameter model: % inhibition=Maximum/(1+(IC50/[Inhibitor])^slope). Data were analyzed on Microsoft Excel for parameter estimation.

IC50 [µM]	SMILES
0.031	Cc1nnc2n1CCN(C(=O)[C@H]1CC[C@H](Nc3nccc(-n4nnc5c(C(C)(C)O)cccc54)n3)CC1)C2 [Compound 39, (4-{4-[4-(1-Hydroxy-1-methyl-ethyl)-benzotriazol-1-yl]-pyrimidin-2-ylamino}-cyclohexyl)-(3-methyl-5,6-dihydro-8H-[1,2,4]triazolo[4,3-a]pyrazin-7-yl)-methanone]
0.058	Cc1cccc2c1nnn2-c1ccnc(N[C@H]2CC[C@H](C(=O)N3CCn4cc(C(F)(F)F)nc4C3)CC2)n1 [Compound 33, {4-[4-(4-Methyl-benzotriazol-1-yl)-pyrimidin-2-ylamino]-cyclohexyl}-(2-trifluoromethyl-5,6-dihydro-8H-imidazo[1,2-a]pyrazin-7-yl)-methanone]
0.174	C=C(C)c1cccc2c1ccn2-c1ccnc(N[C@H]2CC[C@H](C(=O)N3CCn4c(C)nnc4C3)CC2)n1 [Compound 26, {4-[4-(4-Isopropenyl-indol-1-yl)-pyrimidin-2-ylamino]-cyclohexyl}-(3-methyl-5,6-dihydro-8H-[1,2,4]triazolo[4,3-a]pyrazin-7-yl)-methanone]
0.269	O=C([C@H]1CC[C@H](Nc2nccc(-n3ccc4c(OC(F)F)cccc43)n2)CC1)N1CCn2cnnc2C1 [Compound 27, {4-[4-(4-Difluoromethoxy-indol-1-yl)-pyrimidin-2-ylamino]-cyclohexyl}-(5,6-dihydro-8H-[1,2,4]triazolo[4,3-a]pyrazin-7-yl)-methanone]
0.012	O=C([C@H]1CC[C@H](Nc2nccc(-n3ncc4c(OCC5CCS(=O)(=O)C5)cccc43)n2)CC1)N1CCn2ccnc2C1 (some centres unmarked) [Compound 15, (5,6-Dihydro-8H-imidazo[1,2-a]pyrazin-7-yl)-(4-{4-[4-(1,1-dioxo-tetrahydro-1λ6-thiophen-3-ylmethoxy)-indazol-1-yl]-pyrimidin-2-ylamino}-cyclohexyl)-methanone]
0.097	Cc1cnc2n1CCN(C(=O)[C@H]1CC[C@H](Nc3nccc(-n4ccc5c(OC(F)F)cccc54)n3)CC1)C2 [Compound 11, {4-[4-(4-Difluoromethoxy-indol-1-yl)-pyrimidin-2-ylamino]-cyclohexyl}-(3-methyl-5,6-dihydro-8H-imidazo[1,2-a]pyrazin-7-yl)-methanone]
0.038	Cc1cccc2c1nnn2-c1ccnc(N[C@H]2CC[C@H](C(=O)N3CCn4c(C)nnc4C3)CC2)n1 [Compound 35, {4-[4-(4-Methyl-benzotriazol-1-yl)-pyrimidin-2-ylamino]-cyclohexyl}-(3-methyl-5,6-dihydro-8H-[1,2,4]triazolo[4,3-a]pyrazin-7-yl)-methanone]
0.059	Cc1cccc2c1nnn2-c1ccnc(N[C@H]2CC[C@H](C(=O)N3CCn4cnnc4C3)CC2)n1 [Compound 34, (5,6-Dihydro-8H-[1,2,4]triazolo[4,3-a]pyrazin-7-yl)-{4-[4-(4-methyl-benzotriazol-1-yl)-pyrimidin-2-ylamino]-cyclohexyl}-methanone]
0.228	Cc1nnc2n1CCN(C(=O)[C@H]1CC[C@H](Nc3nccc(-n4ccc5c(OC(F)F)cccc54)n3)CC1)C2 [Compound 28, {4-[4-(4-Difluoromethoxy-indol-1-yl)-pyrimidin-2-ylamino]-cyclohexyl}-(3-methyl-5,6-dihydro-8H-[1,2,4]triazolo[4,3-a]pyrazin-7-yl)-methanone]
0.052	Cc1cnc2n1CCN(C(=O)[C@H]1CC[C@H](Nc3nccc(-n4nnc5c(C(C)(C)O)cccc54)n3)CC1)C2 [Compound 41, (4-{4-[4-(1-Hydroxy-1-methyl-ethyl)-benzotriazol-1-yl]-pyrimidin-2-ylamino}-cyclohexyl)-(3-methyl-5,6-dihydro-8H-imidazo[1,2-a]pyrazin-7-yl)-methanone]
0.191	C=C(C)c1cccc2c1ccn2-c1ccnc(N[C@H]2CC[C@H](C(=O)N3CCn4cnnc4C3)CC2)n1 [Compound 25, (5,6-Dihydro-8H-[1,2,4]triazolo[4,3-a]pyrazin-7-yl)-{4-[4-(4-isopropenyl-indol-1-yl)-pyrimidin-2-ylamino]-cyclohexyl}-methanone]
0.049	CC(C)(O)c1cccc2c1nnn2-c1ccnc(N[C@H]2CC[C@H](C(=O)N3CCn4cnnc4C3)CC2)n1 [Compound 38, (5,6-Dihydro-8H-[1,2,4]triazolo[4,3-a]pyrazin-7-yl)-(4-{4-[4-(1-hydroxy-1-methyl-ethyl)-benzotriazol-1-yl]-pyrimidin-2-ylamino}-cyclohexyl)-methanone]
0.205	O=C([C@H]1CC[C@H](Nc2nccc(-c3cnc4c(C(F)(F)F)cccn34)n2)CC1)N1CCn2cnnc2C1 [Compound 42, (5,6-Dihydro-8H-[1,2,4]triazolo[4,3-a]pyrazin-7-yl)-{4-[4-(8-trifluoromethyl-imidazo[1,2-a]pyridin-3-yl)-pyrimidin-2-ylamino]-cyclohexyl}-methanon]
0.234	Cc1nnc2n1CCN(C(=O)[C@H]1CC[C@H](Nc3nccc(-c4cnc5c(C(F)(F)F)cccn45)n3)CC1)C2 [Compound 43, (3-Methyl-5,6-dihydro-8H-[1,2,4]triazolo[4,3-a]pyrazin-7-yl)-{4-[4-(8-trifluoromethyl-imidazo[1,2-a]pyridin-3-yl)-pyrimidin-2-ylamino]-cyclohexyl}-methanone]
0.012	CS(=O)(=O)CCCOc1cccc2c1cnn2-c1ccnc(N[C@H]2CC[C@H](C(=O)N3CCn4cc(C(F)(F)F)nc4C3)CC2)n1 [Compound 13, (4-{4-[4-(3-Methanesulfonyl-propoxy)-indazol-1-yl]-pyrimidin-2-ylamino}-cyclohexyl)-(2-trifluoromethyl-5,6-dihydro-8H-imidazo[1,2-a]pyrazin-7-yl)-methanone]
0.065	C=C(C)c1cccc2c1ccn2-c1ccnc(N[C@H]2CC[C@H](C(=O)N3CCn4c(C)cnc4C3)CC2)n1 [Compound 10, {4-[4-(4-Isopropenyl-indol-1-yl)-pyrimidin-2-ylamino]-cyclohexyl}-(3-methyl-5,6-dihydro-8H-imidazo[1,2-a]pyrazin-7-yl)-methanone]
0.18	O=C([C@H]1CC[C@@H](Nc2nccc(-n3nnc4c(C(F)(F)F)cccc43)n2)CC1)N1CCn2cnnc2C1 [Compound 37, (5,6-Dihydro-8H-[1,2,4]triazolo[4,3-a]pyrazin-7-yl)-{4-[4-(4-trifluoromethyl-benzotriazol-1-yl)-pyrimidin-2-ylamino]-cyclohexyl}-methanone]
0.017	O=C([C@H]1CC[C@H](Nc2nccc(-n3ccc4c(OCC5CCS(=O)(=O)C5)cccc43)n2)CC1)N1CCn2cnnc2C1 (some centres unmarked) [Compound 24, (5,6-Dihydro-8H-[1,2,4]triazolo[4,3-a]pyrazin-7-yl)-(4-{4-[4-(1,1-dioxo-tetrahydro-1λ6-thiophen-3-ylmethoxy)-indol-1-yl]-pyrimidin-2-ylamino}-cyclohexyl)-methanone]
0.032	Cc1nnc2n1CCN(C(=O)[C@H]1CC[C@H](Nc3nccc(-n4ccc5c(OCCCS(C)(=O)=O)cccc54)n3)CC1)C2 [Compound 23, (4-{4-[4-(3-Methanesulfonyl-propoxy)-indol-1-yl]-pyrimidin-2-ylamino}-cyclohexyl)-(3-methyl-5,6-dihydro-8H-[1,2,4]triazolo[4,3-a]pyrazin-7-yl)-methanone]

Tested on: not given
Assay: not given
Conditions: not given

melting point [°C]	SMILES
186 to 188	C=C(C)c1cccc2c1ccn2-c1ccnc(N[C@H]2CC[C@H](C(=O)N3CCn4cnnc4C3)CC2)n1 (as salt: HCl) [Compound 25, (5,6-Dihydro-8H-[1,2,4]triazolo[4,3-a]pyrazin-7-yl)-{4-[4-(4-isopropenyl-indol-1-yl)-pyrimidin-2-ylamino]-cyclohexyl}-methanone]
190 to 195	Cc1nnc2n1CCN(C(=O)[C@H]1CC[C@H](Nc3nccc(-n4nnc5c(OC(F)F)cccc54)n3)CC1)C2 (as salt: HCl) [Compound 45, {4-[4-(4-Difluoromethoxy-benzotriazol-1-yl)-pyrimidin-2-ylamino]-cyclohexyl}-(3-methyl-5,6-dihydro-8H-[1,2,4]triazolo[4,3-a]pyrazin-7-yl)-methanone]
215 to 220	O=C([C@H]1CC[C@H](Nc2nccc(-n3ccc4c(OCC5CCS(=O)(=O)C5)cccc43)n2)CC1)N1CCn2cnnc2C1 (some centres unmarked) (as salt: HCl) [Compound 24, (5,6-Dihydro-8H-[1,2,4]triazolo[4,3-a]pyrazin-7-yl)-(4-{4-[4-(1,1-dioxo-tetrahydro-1λ6-thiophen-3-ylmethoxy)-indol-1-yl]-pyrimidin-2-ylamino}-cyclohexyl)-methanone]
258 to 260	Cc1cccc2c1nnn2-c1ccnc(N[C@H]2CC[C@H](C(=O)N3CCn4cc(C(F)(F)F)nc4C3)CC2)n1 (as salt: HCl) [Compound 33, {4-[4-(4-Methyl-benzotriazol-1-yl)-pyrimidin-2-ylamino]-cyclohexyl}-(2-trifluoromethyl-5,6-dihydro-8H-imidazo[1,2-a]pyrazin-7-yl)-methanone]
